The results in this text go back to article PMC5291402 (The Plant Pathology Journal, 2017).

Test [1] relates to Xanthomonas citri subsp. citri 19-18 (XscW1), WT. Description: Streptomycin MIC/MBC of the strains used. The test is classed as cell-based.
Another test deals with wild type strain XccW2. The test is classed as in vivo, Xanthomonas citri subsp. citri.
The subject of a further test is SR strain XccM8. The test is classed as in vivo, Xanthomonas citri subsp. citri. As to conditions: 50 μg/ml or 100 μg/ml, SR mutant XccM8, citrus leaves.
A further test concerns wild type strains of Xcc. Description: Streptomycin MIC, wild type strains. The class given is cell-based, Xanthomonas citri subsp. citri. Conditions: Xanthomonas citri, read-out: MICs of wild type strains of Xcc.
The test system of test [2] is Xanthomonas citri subsp. citri 8-4 (XcsM5), rpsL41 (K42R in S12). The class given is cell-based.
Test [3] relates to Xanthomonas citri subsp. citri 57-2 (XcsM6), strB located in Tn5393. Description: Streptomycin MIC/MBC of the strains used. The test is classed as cell-based.
Test [4] deals with Xanthomonas citri subsp. citri 27-13 (XcsM8), rpsL41 & strB double mutant. The class given is cell-based.
Test [5] deals with Xanthomonas citri subsp. citri 10-5 (XscW2), WT. Description: Streptomycin MIC/MBC of the strains used. The test is classed as cell-based.

In brackets after ≈: the same amount, converted by molar mass.

What is called MBC is the lowest tested concentration that kills the bacteria rather than only halting them.

Turning to `[H]/N=C(/N)N[C@H]1[C@H](O)[C@@H](O)[C@H](O[C@@H]2O[C@@H](C)[C@](O)(C=O)[C@H]2O[C@@H]2O[C@@H](CO)[C@H](O)[C@@H](O)[C@@H]2NC)[C@@H](N/C(N)=N\[H])[C@@H]1O` [Streptomycin], the MIC is 1 µg/mL in test [1]; 1 to 2 µg/mL (≈ 1.72 to 3.44 µM) with wild type strains of Xcc; 6,000 μg/ml in test [2]; 3330 µg/mL in test [3]; 3,000 μg/ml in test [4]; 2 µg/mL in test [5]. In addition, the “delay of the first pustule formation” value with wild type strain XccW2 (50 μg/ml, wild type Xcc, citrus leaves (data not shown)) is listed as “about 1 day”. Besides, the “days to form the first yellowish halo around the pustule (index 2)” value in the test on wild type strain XccW2 (100 μg/ml, co-infiltrated with wild type Xcc into citrus leaves) came out at 10 days. Moreover, the “suppression of symptom development” value with wild type strain XccW2 (wild type Xcc, citrus leaves, monitored 17 days after inoculation) is “suppressed up to 17 days”. The “suppression of disease progress” value in the test with SR strain XccM8 is given as “did not suppress the disease progress”. Besides, the MBC in test [3] came out at 3670 µg/mL.
